# Structures can show the parent of a compound that is named as a salt.
# Molecular target: T1, KMO mouse enzyme (Mus musculus, UniProt Q91WN4)
# T1 construct: KMO enzyme prepared at Evotec from mouse liver (4-6 weeks old) via mitochondria isolation; from tissue; host or cells: mouse liver (4-6 weeks old), isolated mitochondria
# Experiment: KMO mouse enzyme assay: L-Kynurenine hydroxylation to 3OH-KYN by LC/MS
# Assay type: biochemical
# Details: compound at 10 μM; KMO from mouse liver mitochondria; read-out: INH.Mouse @ 10 μM
# Procedure: A method of monitoring L-Kynurenine (KYN) hydroxylation to form 3-Hydroxy-Kynurenine (3OH-KYN) by LC/MS is described. Product is quantified by multiple reaction monitoring (MRM method).
# • Compound: Stock concentrations: 10 mM in 100% DMSO • Enzyme: KMO enzyme prepared at Evotec from mouse liver (4-6 weeks old) via mitochondria isolation as described in the literature • Substrate: L-Kynurenine (Sigma: Cat# K3750, stock concentration: 10 mM in 100 mM potassium phosphate buffer, pH 7.4)
# • Buffer: 100 mM potassium phosphate, pH 7.4, 200 μM NADPH, 0.4 U/ml G6P-DH (Glucose 6-phosphate Dehydrogenase), 3 mM G6P (D-Glucose 6-phosphate) • Assay Volume: 40 μl • Plate Format: 384 well plate, transparent (Matrix) • Read-Out: product (3OH-KYN) quantification using product specific MRM • Reader: LC/MS/MS
# • prepare serial dilution (factor 3) of compound in 100% DMSO (top concentration=10 mM, 100% DMSO) • [8 points: 10 mM; 3.33 mM; 1.11 mM; 0.37 mM; 0.12 mM; 0.04 mM; 0.0137 mM; 0.0045 mM, 0.0015 mM] • prepare […] solution of each compound concentration (top concentration 300 μM, 3% DMSO) in assay buffer • [concentrations: 300 μM; 100 μM; 33.3 μM; 11.1 μM; 3.70 μM; 1.23 μM; 0.41 μM; 0.137 μM] • prepare substrate (10 mM) at concentration of 1 mM in assay buffer • assay mix: 4 μl compound/well of each concentration+24 μl assaybuffer/well+8 μl KMO mouse enzyme+4 μl 1 mM substrate (final concentration=100 μM) • [final compound top concentration: 30 μM; 0.3% DMSO] • [final compound bottom concentration: 0.0137 μM; 0.3% DMSO] • positive control: 4 μl 50 μM FCE28833 in assay buffer, 0.5% DMSO [final assay concentration=5 μM]+24 μl assaybuffer/well+8 μl KMO mouse enzyme+4 μl 1 mM substrate [final concentration=100 μM] • negative control: 28 μl assay buffer/well+8 μl KMO mouse enzyme+4 μl 1 mM substrate [final concentration=100 μM] • incubate 40 min at RT • add 40 μl/well 10% trichloro acetic acid in water to stop the assay and precipitate protein • centrifuge plate for 3 min at 4000 rpm • product detection by LC/MS (injection of 20 μl/well, 2 fold overfill of the 10 μl sample loop) Data analysis: IC50's are calculated using automated fitting algorithm (A+Analysis).
# Using procedures similar to those described herein, the following compounds were assayed for activity.
# T1 sequence (Q91WN4 whole entry): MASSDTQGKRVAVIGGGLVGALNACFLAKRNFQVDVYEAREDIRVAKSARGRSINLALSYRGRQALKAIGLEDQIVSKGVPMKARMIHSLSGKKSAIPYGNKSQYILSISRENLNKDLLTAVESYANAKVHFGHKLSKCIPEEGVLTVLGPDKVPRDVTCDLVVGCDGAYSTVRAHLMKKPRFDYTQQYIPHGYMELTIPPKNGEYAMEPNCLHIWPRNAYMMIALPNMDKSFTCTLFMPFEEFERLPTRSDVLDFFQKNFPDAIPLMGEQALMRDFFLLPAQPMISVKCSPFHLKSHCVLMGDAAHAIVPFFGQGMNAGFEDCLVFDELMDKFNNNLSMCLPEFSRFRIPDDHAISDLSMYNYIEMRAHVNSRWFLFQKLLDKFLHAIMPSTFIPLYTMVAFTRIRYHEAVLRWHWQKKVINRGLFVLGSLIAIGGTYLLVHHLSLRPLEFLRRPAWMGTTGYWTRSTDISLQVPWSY
row,SMILES,inhibition at 10 µM [%]
1,"CON=C(CCC(=O)Nc1cccnn1)c1ccc(Cl)c(Cl)c1 [4-(3,4-Dichloro-phenyl)-4-methoxyimino-N-pyridazin-3-yl-butyramide]",101
2,"CON=C(CCC(C)=O)c1ccc(Cl)c(Cl)c1 [1-(3,4-Dichloro-phenyl)-pentane-1,4-dione 1-(O-methyl-oxime)]",77.7
3,"COC(=O)CCC(=NO)c1ccc(Cl)c(Cl)c1 [4-(3,4-Dichloro-phenyl)-4-hydroxyimino-butyric acid methyl ester]",99.4
4,"CON=C(CCC(=O)Nc1cncc(C)c1)c1ccc(Cl)c(Cl)c1 [4-(3,4-Dichloro-phenyl)-4-methoxyimino-N-(5-methyl-pyridin-3-yl)-butyramide]",102
5,"CON=C(CCC(=O)Nc1ccc(C)nc1)c1ccc(Cl)c(Cl)c1 [4-(3,4-Dichloro-phenyl)-4-methoxyimino-N-(6-methyl-pyridin-3-yl)-butyramide]",82.9
6,"CON=C(CCCC(=O)OC)c1ccc(Cl)c(Cl)c1 [5-(3,4-Dichloro-phenyl)-5-methoxyimino-pentanoic acid methyl ester]",61.2
7,"CO/N=C(\CCC(=O)OC(C)C)c1ccc(Cl)c(Cl)c1 [4-(3,4-Dichloro-phenyl)-4-methoxyimino-butyric acid isopropyl ester]",102
8,"O=C(O)CC/C(=N\OCc1ccccc1)c1ccc(Cl)c(Cl)c1 [4-Benzyloxyimino-4-(3,4-dichloro-phenyl)-butyric acid]",61.9
9,"CO/N=C(\CCC(=O)Nc1cnn(C)c1)c1ccc(Cl)c(Cl)c1 [4-(3,4-Dichloro-phenyl)-4-methoxyimino-N-(1-methyl-1H-pyrazol-4-yl)-butyramide]",90.5
10,"CO/N=C(\CCC(=O)OC1CCCC1)c1ccc(Cl)c(Cl)c1 [4-(3,4-Dichloro-phenyl)-4-methoxyimino-butyric acid cyclopentyl ester]",102
11,"CON=C(CCC(=O)N(C)c1cccnc1)c1ccc(Cl)c(Cl)c1 [4-(3,4-Dichloro-phenyl)-4-methoxyimino-N-methyl-N-pyridin-3-yl-butyramide]",62.5
12,"CON=C(CCC(=O)N1CCC(C)CC1)c1ccc(Cl)c(Cl)c1 [1-(3,4-Dichloro-phenyl)-4-(4-methyl-piperidin-1-yl)-butane-1,4-dione 1-(O-methyl-oxime)]",57.3
13,"CO/N=C(\CCC(=O)N(C)C)c1ccc(Cl)c(Cl)c1 [4-(3,4-Dichloro-phenyl)-4-methoxyimino-N,N-dimethyl-butyramide]",64.3
14,"CON=C(CCC(=O)Nc1cccnc1)c1ccc(Cl)c(Cl)c1 [4-(3,4-Dichloro-phenyl)-4-methoxyimino-N-pyridin-3-yl-butyramide]",103
15,"CCO/N=C(\CCC(=O)OC)c1ccc(Cl)c(Cl)c1 [4-(3,4-Dichloro-phenyl)-4-ethoxyimino-butyric acid methyl ester]",107
16,"CON=C(CCC(=O)Nc1c(C)cc(C)nc1C)c1ccc(Cl)c(Cl)c1 [4-(3,4-Dichloro-phenyl)-4-methoxyimino-N-(2,4,6-trimethyl-pyridin-3-yl)-butyramide]",66.3
17,"CON=C(CCc1noc(C)n1)c1ccc(Cl)c(Cl)c1 (single isomer, unassigned) [1-(3,4-Dichloro-phenyl)-3-(5-methyl-[1,2,4]oxadiazol-3-yl)-propan-1-one O-methyl-oxime]",87.2
18,"CON=C(CCCC(=O)O)c1ccc(Cl)c(Cl)c1 [5-(3,4-Dichloro-phenyl)-5-methoxyimino-pentanoic acid]",78.3
19,"CON=C(CCC(=O)Nc1ccc(F)nc1)c1ccc(Cl)c(Cl)c1 [4-(3,4-Dichloro-phenyl)-N-(6-fluoro-pyridin-3-yl)-4-methoxyimino-butyramide]",91.7
20,"CON=C(CCC#N)c1ccc(Cl)c(Cl)c1 [4-(3,4-Dichloro-phenyl)-4-methoxyimino-butyronitrile]",74.6
21,"CO/N=C(\CCC(=O)OC1CCC1)c1ccc(Cl)c(Cl)c1 [4-(3,4-Dichloro-phenyl)-4-methoxyimino-butyric acid cyclobutyl ester]",102

row,SMILES,inhibition at 10 µM [%]
1,"CON=C(CCC(=O)Nc1cnccn1)c1ccc(Cl)c(Cl)c1 [4-(3,4-Dichloro-phenyl)-4-methoxyimino-N-pyrazin-2-yl-butyramide]",98
2,"CO/N=C(\CCC(=O)Nc1ccccn1)c1ccc(Cl)c(Cl)c1 [4-(3,4-Dichloro-phenyl)-4-methoxyimino-N-pyridin-2-yl-butyramide]",104
3,"COC(=O)CCC(=NOCCNC(=O)OC(C)(C)C)c1ccc(Cl)c(Cl)c1 [4-[2-tert-Butoxycarbonylamino-ethoxyimino]-4-(3,4-dichloro-phenyl)-butyric acid methyl ester]",56.4
4,"CON=C(CCC(=O)NCC(C)O)c1ccc(Cl)c(Cl)c1 (centres unmarked) [4-(3,4-Dichloro-phenyl)-N-(2-hydroxy-propyl)-4-methoxyimino-butyramide]",98.8
5,CON=C(CCC(=O)O)c1cccc(Cl)c1 [4-(3-Chloro-phenyl)-4-methoxyimino-butyric acid],101
6,"CON=C(CCC(=O)N1CCCCC1)c1ccc(Cl)c(Cl)c1 [1-(3,4-Dichloro-phenyl)-4-piperidin-1-yl-butane-1,4-dione 1-(O-methyl-oxime)]",60.4
7,"CO/N=C(\CCC(=O)O)c1ccc(Cl)c(Cl)c1 [4-(3,4-Dichloro-phenyl)-4-methoxyimino-butyric acid]",106
8,"O=C(O)CC/C(=N\OCC1CC1)c1ccc(Cl)c(Cl)c1 [4-Cyclopropylmethoxyimino-4-(3,4-dichloro-phenyl)-butyric acid]",99.6
9,"CON=C(CCC(=O)Nc1ccccc1)c1ccc(Cl)c(Cl)c1 [4-(3,4-Dichloro-phenyl)-4-methoxyimino-N-phenyl-butyramide]",103
10,"CO/N=C(\CCC(=O)N1CCOCC1)c1ccc(Cl)c(Cl)c1 [1-(3,4-Dichloro-phenyl)-4-morpholin-4-yl-butane-1,4-dione 1-(O-methyl-oxime)]",63.4
11,"CON=C(CCC(=O)Nc1cnccc1C)c1ccc(Cl)c(Cl)c1 [4-(3,4-Dichloro-phenyl)-4-methoxyimino-N-(4-methyl-pyridin-3-yl)-butyramide]",93.9
12,"CON=C(CCC(=O)Nc1cncnc1)c1ccc(Cl)c(Cl)c1 [4-(3,4-Dichloro-phenyl)-4-methoxyimino-N-pyrimidin-5-yl-butyramide]",98.5
13,"CC(C)(C)OC(=O)NCCON=C(CCC(=O)O)c1ccc(Cl)c(Cl)c1 [4-[2-tert-Butoxycarbonylamino-ethoxyimino]-4-(3,4-dichloro-phenyl)-butyric acid]",61.9
14,"CON=C(CCC(=O)NCCO)c1ccc(Cl)c(Cl)c1 [4-(3,4-Dichloro-phenyl)-N-(2-hydroxy-ethyl)-4-methoxyimino-butyramide]",95.7
15,"CON=C(c1ccc(Cl)c(Cl)c1)[C@H]1C[C@@H]1C(=O)O [(1S,2S)-trans-2-[(3,4-Dichloro-phenyl)-methoxyimino-methyl]-cyclopropanecarboxylic acid]",81.2
16,"COC(=O)CC/C(=N\OCc1ccccc1)c1ccc(Cl)c(Cl)c1 [4-Benzyloxyimino-4-(3,4-dichloro-phenyl)-butyric acid methyl ester]",66
17,"CON=C(CCC(=O)OC[C@H](O)[C@H]1OC(=O)C(O)=C1O)c1ccc(Cl)c(Cl)c1 [4-(3,4-Dichloro-phenyl)-4-methoxyimino-butyric acid (S)-2-((R)-3,4-dihydroxy-5-oxo-2,5-dihydro-furan-2-yl)-2-hydroxy-ethyl ester]",102
18,"CON=C(CCC(=O)NCCN(C)C)c1ccc(Cl)c(Cl)c1 [{2-[4-(3,4-Dichloro-phenyl)-4-methoxyimino-butyrylamino]-ethyl}-dimethyl-ammonium trifluoroacetate]",68
19,"CCO/N=C(\CCC(=O)O)c1ccc(Cl)c(Cl)c1 [4-(3,4-Dichloro-phenyl)-4-ethoxyimino-butyric acid]",107
20,"CO/N=C(\CCC(=O)OC1CCOCC1)c1ccc(Cl)c(Cl)c1 [4-(3,4-Dichloro-phenyl)-4-methoxyimino-butyric acid tetrahydro-pyran-4-yl ester]",102

# Reference: patent US20110230428A1, “CERTAIN KYNURENINE-3-MONOOXYGENASE INHIBITORS, PHARMACEUTICAL COMPOSITIONS, AND METHODS OF USE THEREOF” (priority 2008, published 2011)
